Measured values reported in PMC6211260 (Journal of Enzyme Inhibition and Medicinal Chemistry, 2018).

Key:
[1] = tested on: HT-29 colon cancer cell line; experiment: NCI five-dose testing; format: cell-based; conditions: HT-29
Procedure: (§1) Screening against the cancer cell lines was carried out at the National Cancer Institute (NCI, Bethesda, Maryland, USA) applying the standard protocol of the NCI[22].

[2] = tested on: U251 CNS cancer cell line; experiment: NCI five-dose testing; format: cell-based; conditions: U251
Procedure: as §1

[3] = tested on: MDA-MB-468 breast cancer cell line; experiment: NCI five-dose testing; format: cell-based; conditions: MDA-MB-468
Procedure: as §1

[4] = tested on: A498 renal cancer cell line; experiment: NCI five-dose testing; format: cell-based; conditions: A498
Procedure: as §1

[5] = tested on: SK-MEL-5 melanoma cell line; experiment: NCI five-dose testing; format: cell-based; conditions: SK-MEL-5
Procedure: as §1

[6] = tested on: PC-3 prostate cancer cell line; experiment: NCI five-dose testing; format: cell-based; conditions: PC-3
Procedure: as §1

[7] = tested on: K-562 leukaemia cell line; experiment: NCI five-dose testing; format: cell-based; conditions: K-562
Procedure: as §1

[8] = tested on: HOP-92 non-small cell lung cancer cell line; experiment: NCI five-dose testing; format: cell-based; conditions: HOP-92
Procedure: as §1

[9] = tested on: OVCAR-4 ovarian cancer cell line; experiment: NCI five-dose testing; format: cell-based; conditions: OVCAR-4
Procedure: as §1

renal cancer cell lines = experiment: NCI five-dose testing, subpanel mean; format: cell-based; conditions: subpanel VII: renal cancer
Procedure: as §1

[10] = tested on: prostate cancer cell lines; experiment: NCI five-dose testing, subpanel mean; format: cell-based; conditions: subpanel VIII: prostate cancer
Procedure: as §1

Leukaemia cell lines = experiment: NCI five-dose testing, subpanel mean; format: cell-based; conditions: subpanel I: Leukaemia
Procedure: as §1

melanoma cell lines = experiment: NCI five-dose testing, subpanel mean; format: cell-based; conditions: subpanel V: melanoma
Procedure: as §1

breast cancer cell lines = experiment: NCI five-dose testing, subpanel mean; format: cell-based; conditions: subpanel IX: breast cancer
Procedure: as §1

[11] = tested on: ovarian cancer cell lines; experiment: NCI five-dose testing, subpanel mean; format: cell-based; conditions: subpanel VI: ovarian cancer
Procedure: as §1

colon cancer cell lines = experiment: NCI five-dose testing, subpanel mean; format: cell-based; conditions: subpanel III: colon cancer
Procedure: as §1

CNS cancer cell lines = experiment: NCI five-dose testing, subpanel mean; format: cell-based; conditions: subpanel IV: CNS cancer
Procedure: as §1

[12] = tested on: non-small cell lung cancer cell lines; experiment: NCI five-dose testing, subpanel mean; format: cell-based; conditions: subpanel II: non-small cell lung cancer
Procedure: as §1

ERK2/MAPK1 = target: T1, ERK2/MAPK1 (Homo sapiens, UniProt P28482); experiment: In vitro kinase screening (Kinase HotSpot); format: biochemical; conditions: single dose of 10 µM
T1 construct: purchased Reaction Biology Corp
T1 sequence (P28482 whole entry): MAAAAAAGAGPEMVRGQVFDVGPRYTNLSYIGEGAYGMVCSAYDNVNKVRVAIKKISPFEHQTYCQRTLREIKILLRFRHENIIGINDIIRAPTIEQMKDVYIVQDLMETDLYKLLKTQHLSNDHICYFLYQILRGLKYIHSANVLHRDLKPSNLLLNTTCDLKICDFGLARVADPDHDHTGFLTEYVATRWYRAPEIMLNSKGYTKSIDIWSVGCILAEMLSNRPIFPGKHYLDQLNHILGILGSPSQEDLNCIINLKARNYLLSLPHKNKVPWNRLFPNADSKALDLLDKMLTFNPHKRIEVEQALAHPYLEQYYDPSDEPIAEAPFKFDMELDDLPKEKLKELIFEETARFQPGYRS
Text: (§2) To investigate the biological target of compound, Reaction Biology Corp. Kinase HotSpotSM service was used adopting standard assay protocol.

ABL1 (T315I) = target: T2, ABL1 (T315I) (Homo sapiens, UniProt P00519, T315I); experiment: In vitro kinase screening (Kinase HotSpot); format: biochemical; conditions: single dose of 10 µM
T2 construct: purchased Reaction Biology Corp
Text: as §2

EGFR = target: T3, EGFR (Homo sapiens, UniProt P00533); experiment: In vitro kinase screening (Kinase HotSpot); format: biochemical; conditions: single dose of 10 µM
T3 construct: purchased Reaction Biology Corp
T3 sequence (P00533 25-1210): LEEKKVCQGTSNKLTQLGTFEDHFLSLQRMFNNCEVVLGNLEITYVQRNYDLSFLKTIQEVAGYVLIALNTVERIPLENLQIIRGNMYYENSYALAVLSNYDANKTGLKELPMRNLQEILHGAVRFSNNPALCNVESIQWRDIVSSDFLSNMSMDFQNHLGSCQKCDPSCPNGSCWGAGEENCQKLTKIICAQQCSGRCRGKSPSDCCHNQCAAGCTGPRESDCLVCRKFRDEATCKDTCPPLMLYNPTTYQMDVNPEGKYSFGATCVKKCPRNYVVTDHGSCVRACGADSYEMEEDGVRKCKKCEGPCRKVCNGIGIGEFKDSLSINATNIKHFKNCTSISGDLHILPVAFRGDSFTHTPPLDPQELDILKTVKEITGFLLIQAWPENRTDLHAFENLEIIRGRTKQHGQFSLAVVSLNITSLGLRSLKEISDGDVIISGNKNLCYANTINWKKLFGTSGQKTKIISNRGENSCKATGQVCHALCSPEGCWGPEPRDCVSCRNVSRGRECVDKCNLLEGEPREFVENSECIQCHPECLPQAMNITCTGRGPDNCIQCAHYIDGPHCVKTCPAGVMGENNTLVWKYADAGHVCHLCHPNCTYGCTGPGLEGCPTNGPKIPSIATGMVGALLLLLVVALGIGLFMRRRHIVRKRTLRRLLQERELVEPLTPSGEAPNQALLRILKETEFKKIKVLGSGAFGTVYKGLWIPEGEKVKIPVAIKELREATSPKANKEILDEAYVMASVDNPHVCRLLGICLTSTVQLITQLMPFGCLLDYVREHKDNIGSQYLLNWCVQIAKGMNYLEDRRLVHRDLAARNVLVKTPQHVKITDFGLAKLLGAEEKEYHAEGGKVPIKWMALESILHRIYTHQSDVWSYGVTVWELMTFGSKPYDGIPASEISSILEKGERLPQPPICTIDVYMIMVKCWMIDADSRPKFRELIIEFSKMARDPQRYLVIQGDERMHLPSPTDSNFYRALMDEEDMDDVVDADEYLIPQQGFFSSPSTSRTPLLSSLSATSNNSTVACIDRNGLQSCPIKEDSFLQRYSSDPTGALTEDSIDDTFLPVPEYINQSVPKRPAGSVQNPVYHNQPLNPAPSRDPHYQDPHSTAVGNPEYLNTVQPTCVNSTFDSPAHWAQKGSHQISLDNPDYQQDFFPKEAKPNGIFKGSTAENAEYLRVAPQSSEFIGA
Text: as §2

NCI-60 cell line panel = experiment: NCI-60 single-dose (10 µM) antiproliferative screening, mean over panel; format: cell-based; conditions: single-dose 10 µM
Procedure: as §1
(§3) The final target compounds were submitted to the National Cancer Institute (NCI), Maryland, USA[23]. Thirty-one compounds were selected to be tested over 60 cell lines at single dose 10 µM.

[13] = tested on: SF-295 CNS cancer cell line; experiment: NCI-60 single-dose screening; format: cell-based; conditions: 10 µM
Procedure: as §1, §3

[14] = tested on: SK-MEL-28 melanoma cell line; experiment: NCI-60 single-dose screening; format: cell-based; conditions: 10 µM
Procedure: as §1, §3

[15] = tested on: LOX IMVI melanoma cell line; experiment: NCI-60 single-dose screening; format: cell-based; conditions: 10 µM
Procedure: as §1, §3

[16] = tested on: Colo 205 colon cancer cell line; experiment: NCI-60 single-dose screening; format: cell-based; conditions: 10 µM
Procedure: as §1, §3

[17] = tested on: SK-MEL-5 melanoma cell line; experiment: NCI-60 single-dose screening; format: cell-based; conditions: 10 µM
Procedure: as §1, §3

[18] = tested on: HCC-2998 colon cancer cell line; experiment: NCI-60 single-dose screening; format: cell-based; conditions: 10 µM
Procedure: as §1, §3

[19] = read-out: TGI (total growth inhibition concentration)

Compound: O=S(=O)(NCCCNc1cc(-c2cn(-c3ccccc3)nc2-c2cccc(O)c2)ccn1)c1ccc(Cl)cc1 [Compound 2l, 4-Chloro-N-(3-((4-(3-(3-hydroxyphenyl)-1-phenyl-1H-pyrazol-4-yl)pyridin-2-yl)amino)propyl) benzenesulfonamide]
- LD50 (lethal dose 50) [1]: 4.7 µM
- IC50 ([1]; read-out: IC50): 470 nM
- IC (TGI) [1, 19]: 1.7 µM
- LD50 (lethal dose 50) [2]: 8.8 µM
- IC50 ([2]; read-out: IC50): 1350 nM
- IC (TGI) [2, 19]: 3.4 µM
- IC50 [3]: 1160 nM
- LD50 (lethal dose 50) [3]: >100 µM
- IC (TGI) [3, 19]: 4.6 µM
- IC50 [4]: 330 nM
- LD50 (lethal dose 50) [4]: 6.9 µM
- IC (TGI) [4, 19]: 2.2 µM
- IC50 [5]: 1230 nM
- LD50 (lethal dose 50) [5]: 5.3 µM
- IC (TGI) [5, 19]: 2.5 µM
- LD50 (lethal dose 50) [6]: >100 µM
- IC50 ([6]; read-out: IC50): 1740 nM
- IC (TGI) [6, 19]: 6.1 µM
- IC50 [7]: 430 nM
- LD50 (lethal dose 50) [7]: >100 µM
- IC (TGI) [7, 19]: 2.5 µM
- IC50 [8]: 1520 nM
- LD50 (lethal dose 50) [8]: 93.2 µM
- IC (TGI) [8, 19]: 4.7 µM
- IC50 [9]: 1670 nM
- LD50 (lethal dose 50) [9]: >100 µM
- IC (TGI) [9, 19]: 5.9 µM
- IC50 (renal cancer cell lines): 2060 nM
- IC50 [10]: 2280 nM
- IC50 (Leukaemia cell lines): 1440 nM
- IC50 (melanoma cell lines): 1680 nM
- IC50 (breast cancer cell lines): 1580 nM
- IC50 [11]: 2090 nM
- IC50 (colon cancer cell lines): 1510 nM
- IC50 (CNS cancer cell lines): 1650 nM
- IC50 [12]: 2320 nM
- Inhibition % (ERK2/MAPK1): 22.21 ± 0.41%
- Inhibition % (ABL1 (T315I)): –10.98 ± 0.40%
- Inhibition % (EGFR): 11.74 ± 4.78%
- Mean % inhibition (NCI-60 cell line panel; 60-cancer cell line screening): 97.80%
- number of cell lines with more than 100% inhibition (NCI-60 cell line panel; NCI-60 panel): 24
- per cent inhibition [13]: 155.19%
- per cent inhibition [14]: 136.19%
- per cent inhibition [15]: 129.50%
- per cent inhibition [16]: 170.28%
- per cent inhibition [17]: 156.35%
- per cent inhibition [18]: 162.39%
